Results taken from patent US20200316064A1, “CYCLIN-DEPENDENT KINASE 2 BIOMARKERS AND USES THEREOF” (Incyte Corporation, priority 2019, published 2020).

Assays:
[1] = system: CCNE1-amplified cell lines (COV318, OVCAR3, Fu-OV1, KLE, MKN1, AGS, NCI-N87); assay: Cell cycle analysis by FACS in CCNE1-amplified cell lines; format: cell-based, human; settings: 100 nM, 16 hours, vs DMSO
Protocol: The effect of CDK2-knockdown in CCNE1-amplified versus CCNE1-non-amplified cell lines was evaluated. CCNE1-amplified cell lines (Fu-OV1 and KLE) or CCNE1-non-amplified cell lines (COV504 and Igrov1) were treated with a control (“ctrl”) or CDK2-specific small interfering RNAs (“siRNAs”) (“CDK2 siRNA-1” and “CDK2 siRNA-2”) (FIGS. 2A and 2B and 3A and 3B). Seventy-two hours after transfection with the siRNAs, the cells were harvested and subjected to cell cycle analysis by fluorescence activated cell sorting (“FACS”) (FIGS. 2A and 3A). Knockdown of CDK2 was confirmed by western blot (FIGS. 2B and 3B).
The effect of CDK4/6-inhibition in CCNE1-amplified versus CCNE1-non-amplified cell lines was evaluated.
A similar experiment was performed in a larger set of CCNE1-amplified cell lines (COV318 and OVCAR3) and CCNE1-non-amplified cell lines (COV504, OV56, and Igrov1) (FIG. 6).
Next, the impact of CDK2-knockdown in these cells was evaluated. Mkn1, Ags, and NCI-N87 cells were treated with control or CDK2-specific siRNA. Three days-post-siRNA transfection, cell cycle phase distribution of the cells was evaluated by FACS. […]
Bulk DNA was stained with DAPI. Compound-treated and DMSO treated control cells were acquired with CytoFlex (Beckman Coulter) and were analyzed using the Flow Jo software. […]

[2] = system: Rb phosphorylated on serine 780 in CCNE1 amplified COV318 cells; assay: CDK2 pRb (S780) HTRF cellular assay; format: cell-based, human; settings: for IC50: Homo sapiens, FIG. 10B, read-out: IC50 in p-RB S780 HTRF cellular assay
Protocol: CDK2 pRb ([…]) HTRF cellular assay enables the quantitative detection of Rb phosphorylated on […] in CCNE1 amplified COV318 cells. The assay comprised two antibodies: Europium cryptate labeled anti-Phospho-Rb […] antibody (donor) and d2 labeled anti-Rb antibody (acceptor). In brief, COV318 cells were seeded into the wells of 96-well plate at a density of 25,000 per well with 9-point, 3-fold serial diluted compounds and cultured overnight at 37 degree with 5% CO2. The final concentrations of compounds start from 3 μM. The next day cells were lysed in 70 μL 1× Phospho-total protein lysis buffer #2 (Cisbio), supplemented with 0.7 μL blocking buffer (Cisbio) and 1.4 μL protease inhibitor cocktail set III, EDTA-free (Calbiochem, 539134). 16 μL of cell lysates were mixed with 4 μL of the fluorophore-conjugated antibodies to a final concentration of 0.188 nM cryptate-labeled anti-Phospho-Rb […] antibody and 0.14 nM d2 labeled anti-Rb antibody. After 2 h of incubation at room temperature, HTRF signals were measured on the PHERAstar microplate reader (BMG Labtech), using 340 nm as excitation wavelength, a 620 nm filter for the Europium donor fluorescence, and a 665-nm filter for the acceptor fluorescence detection. HTRF signals were calculated as the HTRF ratio (ratio of fluorescence measured at 665 nm and 620 nm)×10000.

Structure (SMILES) | percentage of S phase cells ([1]; COV318, control siRNA-treated) | percentage of S phase cells ([1]; COV318, p16 knocked down by siRNA) | Rb phosphorylation on serine 780 [2] | IC50 [2] [nM]
C[C@@]1(O)CCC[C@H]1n1c(=O)ccc2cnc(NC3CCN(S(C)(=O)=O)CC3)nc21 [Compound A, 8-((1R,2R)-2-hydroxy-2-methylcyclopentyl)-2-((1-(methylsulfonyl)piperidin-4-yl)amino)pyrido[2,3-d]pyrimidin-7(8H)-one] | significantly decreased | not significantly decreased | inhibited Rb phosphorylation on serine 780 | 37
CC(=O)c1c(C)c2cnc(Nc3ccc(N4CCNCC4)cn3)nc2n(C2CCCC2)c1=O [palbociclib] |  |  |  | > 3000
